# Test results published in patent US8277777B2, “Compound having affinity for amyloid” (Nihon Medi-Physics Co., Ltd., priority 2006, dated 2012).
# How the values were obtained:
# [1] = target: T1, intracerebral amyloid (aggregated Aβ1-42 injected into amygdaloid nucleus) (Homo sapiens, UniProt P05067); test: confirmation of imaging of amyloid in brain (autoradiogram of brain slice); type: in vivo, male Wistar rat; details: rat, tail vein, brain removed 30 minutes after the injection
# T1 construct: dissolving Aβ1-42 (Wako Pure Chemical Industries, Ltd.) in a phosphate buffer (pH 7.4); purchased Wako Pure Chemical Industries, Ltd
# Experimental: The following experiment was carried out in order to examine whether amyloid in brain can be imaged by the compound of the present invention.
# (1) A 1 mg/mL suspension of aggregated Aβ (hereinafter referred to as amyloid suspension in this Example) was obtained by dissolving Aβ1-42 (Wako Pure Chemical Industries, Ltd.) in a phosphate buffer (pH 7.4), followed by shaking at 37° C. for 72 hours.
# (2) 2.5 μL (corresponding to […]) of the amyloid suspension was injected into an amygdaloid nucleus on one side of a male Wistar rat (7-week old). As a control, 2.5 μL of a phosphate buffered physiological saline solution (pH 7.4) was injected into an amygdaloid nucleus on the other side of the rat. The rats were examined 3 days after the injection of the amyloid suspension and the phosphate buffered physiological saline solution.
# (3) Compound 4 was dissolved in a 10 mg/mL ascorbic acid-containing physiological saline solution to obtain a sample solution (84 MBq/mL in radioactivity concentration). This solution was injected into the rat through the tail vein (dosage: 0.5 mL, dosed radioactivity: 42 MBq equivalent).
# (4) Brain was removed 30 minutes after the injection to prepare a brain slice of 10 μm in thickness with a microtome (type: CM3050S, manufactured by LEICA). […]
# [2] = partition coefficient based on the octanol extraction method; type: physicochemical; details: octanol / 10 mmol/L phosphate buffer (pH 7.4), radioactivity
# Experimental: Partition coefficients based on the octanol extraction method (hereinafter referred to as log Poctanol) were measured, which are generally used as an indicator of permeability of compounds through the blood-brain barrier (hereinafter referred to as BBB).
# To 2 mL of octanol, 10 μL of a solution containing Compound 4 (Example 5) and 2 mL of a 10 mmol/L phosphate buffer (pH 7.4) were added and stirred for 30 seconds. After the mixture was centrifuged (2000 rpm×60 min.) with a low-speed centrifuge (model: […] CT4D manufactured by Hitachi Koki Co., Ltd.), the octanol layer and the water layer were sampled each in an amount of 1 mL, and subjected to measurement of radioactivity with an autowell gamma system (manufactured by Aloka, Type: ARC-301B). Using the obtained radioactivity, log Poctanol was calculated in accordance with the equation (2).
# [3] = transferability into brain and clearance; details: rats, intravenous injection
# Experimental: Using Compound 4, a time course change of radioactive accumulation in brain of male Wistar rats (7-week old) was measured.
# The rats were sacrificed by bleeding from abdominal artery, and brains were removed and subjected to measurement of radioactivity (hereinafter referred to as A in this Example) with an autowell gamma system (Type: ARC-301B manufactured by Aloka Co., Ltd.) and further subjected to measurement of mass of brains 2, 5, 30 and 60 minutes after the injection. Also, radioactivity (hereinafter referred to as B in this Example) of 0.05 mL of a 1000-fold diluted solution of the injected solution was measured in the same manner as above. Using these measurement results, radioactive distributions per unit weight of brain (% ID/g) at the respective time points were calculated in accordance with the following formula (5). Three animals were used for experiment at the respective time points.
# T1 sequence (P05067 672-713): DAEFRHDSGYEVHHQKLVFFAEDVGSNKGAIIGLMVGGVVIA
substance,measurement,setting,value
"2-[4′-(3″-[^18F]fluoropropoxy)phenyl]-6-methoxyimidazo[1,2-a]pyridine [Compound 4]",accumulation of radioactivity on intracerebral amyloid,[1],possesses a property of accumulating on intracerebral amyloid
same,logPoctanol value,[2],1.8
same,Radioactive concentration per unit weight in brain,[3]; after 2 min.,1.36 % ID/g
same,Radioactive concentration per unit weight in brain,[3]; after 5 min.,0.93 % ID/g
same,Radioactive concentration per unit weight in brain,[3]; after 30 min.,0.23 % ID/g
same,Radioactive concentration per unit weight in brain,[3]; after 60 min.,0.13 % ID/g
